Paper PMC6680701, “Brain Delivery of Thyrotropin-Releasing Hormone via a Novel Prodrug Approach” (Pharmaceutics, 2019)
Square brackets hold non-standard residues; d marks the D form. Peptide text beside a SMILES is read from it. ξ: configuration not given here. ξGly(decyl) = CCCCCCCCCCC(N)C(=O)O

Assays:
[1] = In vitro metabolic stability in plasma; format: in vitro ADME; settings: male CD-1 mouse plasma, 10 µM test compound, n = 3, ± SD; for half-life: mouse, plasma, read-out: t1/2 in Plasma
Method: (§1) Metabolic stability studies were carried out as reported before using freshly made brain homogenate (20% w/v) and plasma at 37 °C, in triplicate. For obtaining brain homogenates, a Bead Bug microtube homogenizer (Benchmark Scientific, Edison, NJ, USA) was used. For obtaining plasma, blood was collected in BD Vacutainer® Sodium Heparin tubes (Becton, Dickinson and Co., Franklin Lakes, NJ, USA) followed by centrifugation. Each biological matrix was spiked with compound (1) or TRH to create 10 µM solutions. KYP-2047, a POP inhibitor, was used in selected experiments at 50 µM concentration. Sample aliquots (100 µL) of TRH-containing matrices were removed after 2, 4, 6, 8, 10, 15, and 30 min, while sample aliquots (100 µL) of prodrug-containing matrices were obtained at 5, 10, 20, 30, 40, 60, 90, 120, and 210 min. Sample aliquots were added to 200 µL of acetic acid solution (20% v/v) in acetonitrile, thoroughly vortexed and, then, centrifuged before LC–MS/MS analysis. For LC separation, a Kinetex-C8 column (10 cm × 4.6 mm i.d., dp = 2.6 µm; Phenomenex; Torrance, CA, USA) with the eluent mixed from (A) H2O with 0.1% (v/v) formic acid and (B) acetonitrile with 0.1% (v/v) formic acid, flow rate of 400 µL/min, and gradient elution by a 10-min linear program from 0% B to 90% B were employed. Half-life (t1/2) values were calculated by assuming pseudo-first-order degradation.

[2] = In vitro metabolic stability in brain homogenate; format: in vitro ADME; settings: mouse, male CD-1 mouse brain homogenate, 10 µM test compound
Method: as §1

[3] = 37 °C, n = 3, ± SD, read-out: t1/2 in 20% (w/v) Brain Homogenate

Row | SMILES | half-life ([1]; 37 °C) | half-life ([1]; with POP inhibitor KYP-2047 at 50 µM) | t1/2 in Plasma ([1]; with POP inhibitor KYP-2047 at 50 µM, listed as prodrug) | half-life [2, 3] | half-life ([2]; with POP inhibitor KYP-2047 at 50 µM, n = 3, read-out: t1/2 in 20% (w/v) Brain Homogenate)
1 | CCCCCCCCCCC(N)C(=O)NC(CCCCCCCCCC)C(=O)N1CCC[C@H]1C(=O)N1CCC[C@H]1C(=O)N[C@@H](CCC(N)=O)C(=O)N[C@@H](Cc1c[nH]cn1)C(=O)N1CCC[C@H]1C(N)=O (stereo partly drawn) [(1), C12-C12-Pro-Pro-Gln-His-Pro-NH2] (H-[ξGly(decyl)][ξGly(decyl)]PPQHP-NH2) | 1.67 ± 0.117 h | 1.92 ± 0.217 h | did not change | 0.783 ± 0.1 h | > 24 h
2 | NC(=O)[C@@H]1CCCN1C(=O)[C@H](Cc1cnc[nH]1)NC(=O)[C@@H]1CCC(=O)N1 [TRH, pGlu-His-Pro-NH2, reference compound] | ~0.117 h | – | – | < 0.0833 h | –
